The target of one experiment is T1, full-length enzyme (sGC) (Homo sapiens, UniProt Q02108+Q02153).
T1 construct: Full-length human recombinant guanylyl cyclase (soluble); purchased Enzo lifesciences ALX-201-177
T1 sequence (Q02108 1-690): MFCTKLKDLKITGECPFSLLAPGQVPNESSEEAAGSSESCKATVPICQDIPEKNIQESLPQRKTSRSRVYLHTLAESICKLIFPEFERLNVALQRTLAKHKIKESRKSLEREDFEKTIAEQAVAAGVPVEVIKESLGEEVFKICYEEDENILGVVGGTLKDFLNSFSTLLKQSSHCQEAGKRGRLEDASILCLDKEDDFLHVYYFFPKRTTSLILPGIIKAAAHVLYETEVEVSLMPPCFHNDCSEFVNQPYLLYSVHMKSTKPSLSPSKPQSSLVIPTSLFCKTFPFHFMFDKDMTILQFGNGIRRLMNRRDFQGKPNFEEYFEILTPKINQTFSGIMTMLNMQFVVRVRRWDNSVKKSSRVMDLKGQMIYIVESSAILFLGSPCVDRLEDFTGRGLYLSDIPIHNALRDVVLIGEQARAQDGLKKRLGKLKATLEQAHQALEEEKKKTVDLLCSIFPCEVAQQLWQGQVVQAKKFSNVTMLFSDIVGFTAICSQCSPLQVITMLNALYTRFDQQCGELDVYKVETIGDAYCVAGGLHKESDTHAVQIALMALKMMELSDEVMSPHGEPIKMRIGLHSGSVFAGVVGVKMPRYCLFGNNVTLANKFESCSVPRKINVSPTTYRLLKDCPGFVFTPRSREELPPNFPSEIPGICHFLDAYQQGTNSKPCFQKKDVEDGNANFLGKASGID
T1 sequence (Q02153 1-619): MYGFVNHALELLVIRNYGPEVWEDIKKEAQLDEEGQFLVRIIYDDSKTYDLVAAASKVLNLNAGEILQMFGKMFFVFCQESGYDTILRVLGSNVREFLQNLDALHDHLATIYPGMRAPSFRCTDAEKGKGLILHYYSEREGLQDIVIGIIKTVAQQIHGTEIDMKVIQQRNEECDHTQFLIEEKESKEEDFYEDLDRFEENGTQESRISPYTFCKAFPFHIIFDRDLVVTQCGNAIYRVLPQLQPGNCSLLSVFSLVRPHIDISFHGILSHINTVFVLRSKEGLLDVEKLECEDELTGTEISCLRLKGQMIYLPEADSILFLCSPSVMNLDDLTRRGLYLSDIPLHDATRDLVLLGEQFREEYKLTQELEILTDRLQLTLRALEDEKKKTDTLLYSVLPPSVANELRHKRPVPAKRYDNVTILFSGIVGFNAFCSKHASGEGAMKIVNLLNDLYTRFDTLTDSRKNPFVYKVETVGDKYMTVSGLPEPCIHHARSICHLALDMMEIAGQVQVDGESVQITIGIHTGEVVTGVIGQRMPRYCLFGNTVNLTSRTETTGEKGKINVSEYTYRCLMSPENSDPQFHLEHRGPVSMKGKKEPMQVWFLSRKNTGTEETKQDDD
Kind of experiment: SPR binding to full-length sGC. The procedure:
Full-length human recombinant guanylyl cyclase (soluble) and bovine lung guanylyl cyclase (soluble) were obtained from Enzo lifesciences (catalogue numbers ALX-201-177 and ALX-202-039-C005). Biacore consumables were purchased from GE Healthcare (UK), including buffer stock solutions. All other reagents used were obtained from Sigma. Starting materials were either commercially available or synthesized according to methods reported in the literature. ^1H and ^13C NMR spectra were recorded on a Bruker AMX-300 or a Bruker AMX-500 spectrometer. Chemical shifts are reported as ppm relative to TMS internal standard. Mass spectra were recorded on a Fisons VG70-SE spectrometer (EI, FAB) or an Agilent 6100 Series LC-mass spectrometer using C-18 or C-4 columns. Microwave reactions were carried out using a CEM Discover microwave.
(§1) Surface plasmon resonance (SPR) experiments were performed with a Biacore T200 instrument at 25 °C. Data processing and analysis were performed using BIAevaluation software and Scrubber2. All sensorgrams were double referenced by subtracting the response in a reference flowcell and a blank sample. Materials and methods used were the same as previously published.[24]
A general note: Surface plasmon resonance follows binding to a sensor surface in real time, without labels.

The next experiment addresses T2, sGCcat (Homo sapiens, UniProt Q02108+Q02153).
T2 construct: a smaller construct of the catalytic domain (sGCcat)
T2 sequence (Q02108 481-608 limits assumed): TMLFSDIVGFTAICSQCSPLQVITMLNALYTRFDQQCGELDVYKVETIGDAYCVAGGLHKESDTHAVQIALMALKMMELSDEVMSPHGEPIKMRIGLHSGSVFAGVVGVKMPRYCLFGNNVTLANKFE
T2 sequence (Q02153 421-554 limits assumed): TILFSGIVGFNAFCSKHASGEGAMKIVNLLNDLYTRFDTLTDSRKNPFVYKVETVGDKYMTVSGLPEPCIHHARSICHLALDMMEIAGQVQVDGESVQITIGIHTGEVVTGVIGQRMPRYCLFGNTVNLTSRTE
Kind of experiment: SPR binding to catalytic domain of sGC. The procedure:
We have previously described a surface plasmon resonance-based assay for the detection of binding of small molecules to full-length sGC and a smaller construct of the catalytic domain (sGCcat).[24] This assay was used to measure the binding of the compounds to sGCcat.[24] […] The position of the hydroxyl group can be changed whilst retaining binding strength and activity.
as §1

Another experiment concerns adenylyl cyclase. Description: Adenylyl cyclase activity (data not shown). Format: biochemical. The text has this:
The sGC heterodimer is composed of a α-subunit and a shorter β-subunit which presents in the N-terminal the prosthetic haem group bound to histidine-105.[27] Each subunit is composed of a haem-nitric oxide binding domain, a PAS-like domain, a coiled-coil bundle, and the C-terminal catalytic domain where turnover of GTP into cGMP occurs.[28] […] The two sites are different, and small molecules can bind to one or to both sites, thus showing a 1:1 or 1:2 binding ratio. We have previously shown by surface plasmon resonance (SPR) that ATP binds to both sites and may inhibit sGC activity via competition with GTP, highlighting the potential for allosteric regulation of the enzyme.[24] GC domains are also present in the membrane-bound natriuretic peptide receptors type-A and type-B. There receptors, also referred to as particulate GCs (pGCs), are activated by binding of natriuretic peptides to the extracellular domain of the receptors, leading to an increase in GTP turnover at the intracellular GC domain.[32–34] In this study we observed by SPR that compound 10 bound to the catalytic domain of sGC in a 1:1 ratio. […] However, activity against kinases or phosphodiesterases was not investigated.

Like-named read-outs stand apart in the source and are kept apart here.

One may read the Kd as the constant that tells how readily two partners part at equilibrium. A low value points to a tighter complex. For the compound `O=[N+]([O-])c1ccc2nc(Nc3ccc(O)cc3)c(Nc3ccc(O)cc3)nc2c1` [Compound 10, 4,4′-((6-Nitroquinoxaline-2,3-diyl)bis(azanediyl))diphenol], the Kd was found to be 19.4 ± 2.1 µM at full-length enzyme (sGC), 11.4 ± 1.8 µM at sGCcat and 11 µM at sGCcat (listed as D12). Also, the “sGCcat (SPR) binding norm. resp. (RU)” value at sGCcat (Biacore T200, 25 °C) was found to be 14.4 ± 1.7 RU. The “binding to sGCcat (in words)” value at sGCcat (discussion of Table 1) is “higher binding”. Further, the “activity on adenylyl cyclase” value with adenylyl cyclase (basal) and in the experiment with adenylyl cyclase (forskolin-stimulated) was “no activity” throughout.
